In patent US8378117B2 (priority 2005, dated 2013):
Where two headings read alike, the source gives them in different places.

Tests used:
CB1 receptor = target: T1, CB1 receptor (Homo sapiens, UniProt P21554); experiment: Binding assay for CB1 agonists or inverse agonists (SK-N-MC membranes, [3H]-CP-55,940); details: for CB1 receptor binding average percent inhibition: value shown is an average percent inhibition (footnote 5), concentration not given; for inhibition at 0.2 µM: read-out: CB1 receptor binding percent inhibition, test concentration 0.2 μM (footnote 2)
T1 construct: expressed in transfected cells
Method: (§1) The human CB1 and CB2 receptors were stably expressed in SK-N-MC cells transfected with pcDNA3 CB-1 (human) or pcDNA3 CB-2 (human). The cells were grown in T-180 cell culture flasks under standard cell culture conditions at 37° C. in a 5% CO2 atmosphere. The cells were harvested by trysinization and homogenized in a homogenization buffer (10 mM Tris, 0.2 mM MgCl2, 5 mM KCl, with protease inhibitors aprotinin, leupeptin, pepstatin A and bacitracin) and centrifuged (2000 g). The supernatant was then centrifuged in 2M sucrose (31,300 g) to produce a semi-purified membrane pellet. The pellet was resuspended in homogenization and stored at −80° C.
(§2) On the day of the assay, the pellet was thawed on ice and diluted in assay buffer (50 mM Tris-HCl, 5 mM MgCl2, 2.5 mM EDTA, 0.5 mg/mL fatty acid free bovine serum aldumin, pH 7.5). The diluted membrane pellet was added with buffer, either a test compound or vehicle standard and the radioligand [H]^3+-CP-55,940 (0.2 mM) to the wells of a 96-well polypropylene plate. Non-specific binding was measured in wells containing WIN 55,212 (10 uM). The plate was covered and incubated for 90 minutes at 30° C. The contents were then aspirated onto a Packard Unifilter GF/C filter bottom plate prewet with 0.5% polyethyleneimine. The wells of the polypropylene plate were rinsed and aspirated seven times with a 0.9% saline-0.5% Tween 20 solution. The Unifilter plate was dried, a scintillation cocktail was added to each well and the counts representing binding were quantitated in a TopCount scintillation counter.
(§3) For compounds tested, an IC50 binding value was obtained from percent inhibition studies in which various test concentrations were used. The binding value was calculated by linear regression.

CB2 receptor = target: T2, CB2 receptor (Homo sapiens, UniProt P34972); experiment: Binding assay for CB2 agonists or inverse agonists (SK-N-MC membranes, [3H]-CP-55,940)
T2 construct: expressed in transfected cells
Method: as §1
as §2, with “The diluted membrane pellet was added with buffer, either a test compound or vehicle standard and the radioligand [H]^3+-CP-55,940 (0.2 mM) to the wells of a 96-well polypropylene plate. Non-specific binding was measured in wells containing WIN 55,212 (10 uM).” left out
as §3

[1] = read-out: CB1 receptor binding percent inhibition, test concentration 1 μM (footnote 1)
[2] = Cannabinoid CB1 Receptor Binding IC50, calculated by linear regression from percent inhibition at various test concentrations
[3] = test concentration 0.2 μM (footnote 2), read-out: CB2 receptor binding percent inhibition
[4] = Cannabinoid CB2 Receptor Binding IC50, calculated by linear regression from percent inhibition at various test concentrations

T1 sequence (P21554 whole entry): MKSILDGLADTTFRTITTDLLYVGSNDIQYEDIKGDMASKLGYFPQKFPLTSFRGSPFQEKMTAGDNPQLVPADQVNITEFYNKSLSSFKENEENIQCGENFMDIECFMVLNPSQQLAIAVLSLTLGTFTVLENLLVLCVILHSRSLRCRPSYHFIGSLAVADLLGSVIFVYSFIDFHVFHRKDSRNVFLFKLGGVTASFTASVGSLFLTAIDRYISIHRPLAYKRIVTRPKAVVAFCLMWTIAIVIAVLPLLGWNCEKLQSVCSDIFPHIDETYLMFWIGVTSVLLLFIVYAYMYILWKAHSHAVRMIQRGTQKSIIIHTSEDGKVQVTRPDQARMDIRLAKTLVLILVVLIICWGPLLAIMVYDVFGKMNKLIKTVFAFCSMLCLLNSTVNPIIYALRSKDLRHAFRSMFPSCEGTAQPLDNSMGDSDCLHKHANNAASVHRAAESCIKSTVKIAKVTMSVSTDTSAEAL
T2 sequence (P34972 whole entry): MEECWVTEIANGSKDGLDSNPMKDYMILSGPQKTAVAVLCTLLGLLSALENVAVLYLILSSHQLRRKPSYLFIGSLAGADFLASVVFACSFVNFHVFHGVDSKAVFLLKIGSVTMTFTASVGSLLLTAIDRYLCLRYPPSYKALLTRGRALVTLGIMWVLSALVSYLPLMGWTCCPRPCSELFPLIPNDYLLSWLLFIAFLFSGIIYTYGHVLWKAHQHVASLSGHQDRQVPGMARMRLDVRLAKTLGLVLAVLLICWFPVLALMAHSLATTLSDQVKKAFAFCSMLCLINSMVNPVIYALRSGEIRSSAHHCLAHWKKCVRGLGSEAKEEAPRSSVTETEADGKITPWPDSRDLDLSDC

With `COC(=O)[C@H](Cc1ccc(F)cc1)NC(=O)c1nn(C2CCCCC2)c2c1CCCCC2Cc1cccc(F)c1` (stereo partly drawn) [Cpd 73, (2S)-2-{[1-cyclohexyl-8-(3-fluoro-benzyl)-1,4,5,6,7,8-hexahydro-cycloheptapyrazole-3-carbonyl]-amino}-3-(4-fluoro-phenyl)-propionic acid methyl ester] the “CB1 receptor binding average percent inhibition” value (CB1 receptor) was “^(5)24%” and the “CB2 receptor binding percent inhibition” value (CB2 receptor; test concentration not stated) was 8%.

`CC(C)(C)OC(=O)N1CCC(NC(=O)c2nn(C3CCCCC3)c3c2CCCCC3Cc2cccc(F)c2)CC1` (stereo not shown) [Cpd 46, 4-{[1-cyclohexyl-8-(3-fluoro-benzyl)-1,4,5,6,7,8-hexahydro-cycloheptapyrazole-3-carbonyl]-amino}-piperidine-1-carboxylic acid tert-butyl ester] was tested, and the inhibition at 1 µM (CB1 receptor; [1]) was 45% and the “CB2 receptor binding percent inhibition” value (CB2 receptor; test concentration not stated) was 0%.

`CC12CCC(C1)C(C)(C)[C@H]2NC(=O)c1nn(C2CCCCC2)c2c1CCCCC2Cc1cccc(F)c1` (stereo partly drawn) [Cpd 44, 1-cyclohexyl-8-(3-fluoro-benzyl)-1,4,5,6,7,8-hexahydro-cycloheptapyrazole-3-carboxylic acid [(2S)-1,3,3-trimethyl-bicyclo[2.2.1]hept-2-yl]-amide] showed an IC50 (CB1 receptor; [2]) of 200 nM, an inhibition at 1 µM (CB1 receptor; read-out: CB1 receptor binding percent inhibition) of 82% and an IC50 (CB2 receptor; calculated by linear regression from percent inhibition at various test concentrations, read-out: Cannabinoid CB2 Receptor Binding IC50) of 600 nM. It also gave an inhibition at 1 µM (CB2 receptor; test concentration 1 μM (footnote 1), read-out: CB2 receptor binding percent inhibition) of 75%.

For `C[C@@H](NC(=O)c1n[nH]c2c1CCCC/C2=C\c1ccc(Cl)cc1)C1CCCCC1` [Cpd 140, (8E)-8-(4-chloro-benzylidene)-1,4,5,6,7,8-hexahydro-cycloheptapyrazole-3-carboxylic acid [(1R)-1-cyclohexyl-ethyl]-amide], the IC50 (CB1 receptor; [2]) was 6 nM, the inhibition at 0.2 µM (CB1 receptor) was 97% and the “CB2 receptor binding percent inhibition” value (CB2 receptor; test concentration 0.2 μM (footnote 2)) was “^(2)100%”.

Work on `O=C(NN1CCOCC1)c1nn(-c2ccccc2Cl)c2c1CCCC/C2=C\c1ccc(Cl)cc1` [Cpd 194, (8E)-8-(4-chloro-benzylidene)-1-(2-chloro-phenyl)-1,4,5,6,7,8-hexahydro-cycloheptapyrazole-3-carboxylic acid morpholin-4-ylamide] yielded an inhibition at 0.2 µM (CB1 receptor) of 19% and an inhibition at 0.2 µM (CB2 receptor; [3]) of 10%.

In the case of `O=C(NCc1ccccc1)c1nn(C2CCCCC2)c2c1CCCCC2Cc1cccc(F)c1` (stereo not shown) [Cpd 53, 1-cyclohexyl-8-(3-fluoro-benzyl)-1,4,5,6,7,8-hexahydro-cycloheptapyrazole-3-carboxylic acid benzylamide], the inhibition at 1 µM (CB1 receptor; [1]) is reported as 33% and the “CB2 receptor binding percent inhibition” value (CB2 receptor; test concentration not stated) is reported as 52%.

In the case of `Cn1nc(/C=C/S(=O)(=O)NN2CCOCC2)c2c1C(Cc1ccc(F)cc1)CCCC2` (stereo not shown) [Cpd 126, (2E)-2-[8-(4-fluoro-benzyl)-1-methyl-1,4,5,6,7,8-hexahydro-cycloheptapyrazol-3-yl]-ethenesulfonic acid morpholin-4-ylamide], the inhibition at 1 µM (CB1 receptor; [1]) is reported as 0% and the “CB2 receptor binding percent inhibition” value (CB2 receptor; test concentration not stated) is reported as 65%.

For `O=C(NC1C2CC3CC(C2)CC1C3)c1nn(C2CCCCC2)c2c1CCCCC2Cc1cccc(Cl)c1` (stereo not shown) [Cpd 12, 8-(3-chloro-benzyl)-1-cyclohexyl-1,4,5,6,7,8-hexahydro-cycloheptapyrazole-3-carboxylic acid adamantan-2-ylamide], the inhibition at 1 µM (CB1 receptor; [1]) was 36% and the “CB2 receptor binding percent inhibition” value (CB2 receptor; test concentration not stated) was 31%.

For `C[C@@H](NC(=O)c1nn(C2CCCCC2)c2c1CCCCC2Cc1cccc(F)c1)c1ccccc1` (stereo partly drawn) [Cpd 174, 1-cyclohexyl-8-(3-fluoro-benzyl)-1,4,5,6,7,8-hexahydro-cycloheptapyrazole-3-carboxylic acid [(1R)-1-phenyl-ethyl]-amide], the inhibition at 0.2 µM (CB1 receptor) was 0% and the inhibition at 0.2 µM (CB2 receptor; [3]) was 33%.

For `O=C(NC1C2CC3CC(C2)CC1C3)c1nn(-c2ccc(Cl)cc2Cl)c2c1CCCCC2Cc1cccc(Cl)c1` (stereo not shown) [Cpd 17, 8-(3-chloro-benzyl)-1-(2,4-dichloro-phenyl)-1,4,5,6,7,8-hexahydro-cycloheptapyrazole-3-carboxylic acid adamantan-2-ylamide], the inhibition at 1 µM (CB1 receptor; [1]) was 37% and the “CB2 receptor binding percent inhibition” value (CB2 receptor; test concentration not stated) was 11%.

In the case of `CC12CCC(C1)C(C)(C)[C@H]2NC(=O)c1nn(C2CCCCC2)c2c1CCCCC2Cc1ccc(Cl)cc1` (stereo partly drawn) [Cpd 2, 8-(4-chloro-benzyl)-1-cyclohexyl-1,4,5,6,7,8-hexahydro-cycloheptapyrazole-3-carboxylic acid [(2S)-1,3,3-trimethyl-bicyclo[2.2.1]hept-2-yl]-amide], the inhibition at 1 µM (CB1 receptor; [1]) is reported as 21% and the “CB2 receptor binding percent inhibition” value (CB2 receptor; test concentration not stated) is reported as 53%.

For `CCOC(=O)[C@H]1C2C=CC(C2)[C@H]1NC(=O)c1nn(C2CCCCC2)c2c1CCCCC2Cc1ccc(F)cc1` (stereo partly drawn) [Cpd 88, (2S,3R)-3-{[1-cyclohexyl-8-(4-fluoro-benzyl)-1,4,5,6,7,8-hexahydro-cycloheptapyrazole-3-carbonyl]-amino}-bicyclo[2.2.1]hept-5-ene-2-carboxylic acid ethyl ester], the inhibition at 1 µM (CB1 receptor; [1]) was 2% and the “CB2 receptor binding percent inhibition” value (CB2 receptor; test concentration not stated) was 32%.

With `CCOC(=O)[C@@H]1C2CCC(C2)[C@@H]1NC(=O)c1nn(C2CCCCC2)c2c1CCCCC2Cc1ccc(F)cc1` (stereo partly drawn) [Cpd 106, (2R,3S)-3-{[1-cyclohexyl-8-(4-fluoro-benzyl)-1,4,5,6,7,8-hexahydro-cycloheptapyrazole-3-carbonyl]-amino}-bicyclo[2.2.1]heptane-2-carboxylic acid ethyl ester] the inhibition at 1 µM (CB1 receptor; [1]) was 45% and the “CB2 receptor binding percent inhibition” value (CB2 receptor; test concentration not stated) was 95%.

`Cc1ccc(CC2CCCCc3c(C(=O)NC4C5(C)CCC(C5)C4(C)C)nn(-c4ccc(F)cc4)c32)cc1` (stereo not shown) [Cpd 1, 1-(4-fluoro-phenyl)-8-(4-methyl-benzyl)-1,4,5,6,7,8-hexahydro-cycloheptapyrazole-3-carboxylic acid (1,3,3-trimethyl-bicyclo[2.2.1]hept-2-yl)-amide] gave an IC50 (CB1 receptor; [2]) of 200 nM and an IC50 (CB2 receptor; [4]) of 300 nM.

For `CC12CCC(C1)C(C)(C)[C@H]2NC(=O)c1nn(Cc2ccccc2)c2c1CCCCC2c1ccccc1` (stereo partly drawn) [Cpd 47, 1-benzyl-8-phenyl-1,4,5,6,7,8-hexahydro-cycloheptapyrazole-3-carboxylic acid [(2S)-1,3,3-trimethyl-bicyclo[2.2.1]hept-2-yl]-amide], the IC50 (CB1 receptor; [2]) was 100 nM, the inhibition at 1 µM (CB1 receptor; [1]) was 91% and the IC50 (CB2 receptor; [4]) was 30 nM. For the same molecule, the “CB2 receptor binding percent inhibition” value (CB2 receptor; test concentration 1 μM (footnote 1)) was 94%.

In the case of `COC(=O)[C@@H](Cc1ccc(O)cc1)NC(=O)c1nn(C2CCCCC2)c2c1CCCCC2Cc1cccc(F)c1` (stereo partly drawn) [Cpd 82, (2R)-2-{[1-cyclohexyl-8-(3-fluoro-benzyl)-1,4,5,6,7,8-hexahydro-cycloheptapyrazole-3-carbonyl]-amino}-3-(4-hydroxy-phenyl)-propionic acid methyl ester], the IC50 (CB1 receptor; calculated by linear regression from percent inhibition at various test concentrations, read-out: Cannabinoid CB1 Receptor Binding IC50) is reported as 1000 nM, the “CB1 receptor binding average percent inhibition” value (CB1 receptor) is reported as 46% and the IC50 (CB2 receptor; [4]) is reported as 60 nM. For the same molecule, the “CB2 receptor binding average percent inhibition” value (CB2 receptor; value shown is an average percent inhibition (footnote 5), concentration not given) was 88%.

For `O=C(N[C@@H]1c2ccccc2C[C@@H]1O)c1nn(C2CCCCC2)c2c1CCCCC2Cc1ccc(F)cc1` (relative stereo) [Cpd 121, (8S*)-1-cyclohexyl-8-(4-fluoro-benzyl)-1,4,5,6,7,8-hexahydro-cycloheptapyrazole-3-carboxylic acid [(1R,2S)-2-hydroxy-indan-1-yl]-amide], the IC50 (CB1 receptor; [2]) was 400 nM, the inhibition at 0.5 µM (CB1 receptor; read-out: CB1 receptor binding percent inhibition, test concentration 0.5 μM (footnote 10)) was 70% and the inhibition at 1 µM (CB1 receptor; [1]) was 80%. The “CB2 receptor binding percent inhibition” value (CB2 receptor; test concentration not stated) was 95%.

Work on `O=C(Nc1ccncc1)c1nn(-c2ccc(Cl)cc2Cl)c2c1CCCC/C2=C\c1ccc(Cl)cc1` [Cpd 153, (8E)-8-(4-chloro-benzylidene)-1-(2,4-dichloro-phenyl)-1,4,5,6,7,8-hexahydro-cycloheptapyrazole-3-carboxylic acid pyridin-4-ylamide] yielded an inhibition at 0.2 µM (CB1 receptor) of 44% and an inhibition at 0.2 µM (CB2 receptor; [3]) of 0%.

In the case of `O=C(NN1CCCCC1)c1nn(-c2ccc(Cl)cc2Cl)c2c1CCCCC2Cc1ccc(Cl)cc1` (stereo not shown) [Cpd 27, 8-(4-chloro-benzyl)-1-(2,4-dichloro-phenyl)-1,4,5,6,7,8-hexahydro-cycloheptapyrazole-3-carboxylic acid piperidin-1-ylamide], the inhibition at 1 µM (CB1 receptor; [1]) is reported as 0% and the “CB2 receptor binding percent inhibition” value (CB2 receptor; test concentration not stated) is reported as 0%.

In the case of `O=C(N[C@H](CO)c1ccccc1)c1nn(-c2ccc(Cl)cc2Cl)c2c1CCCC[C@@H]2Cc1cccc(Cl)c1` [Cpd 161, (8R)-8-(3-chloro-benzyl)-1-(2,4-dichloro-phenyl)-1,4,5,6,7,8-hexahydro-cycloheptapyrazole-3-carboxylic acid [(1S)-2-hydroxy-1-phenyl-ethyl]-amide], the inhibition at 0.2 µM (CB1 receptor) is reported as 35% and the inhibition at 0.2 µM (CB2 receptor; [3]) is reported as 3%.
